Source: patent US7407645B2, “Bioconjugates of metal complexes of nitrogen-containing macrocyclic ligands” (Metaphore Pharmaceuticals, Inc., priority 1995, dated 2008)

Assay: Relaxivity R1 from proton relaxation times (T1), inversion-recovery, 20 MHz
Format: physicochemical
Design: unit not given here
Details: 100 mM Hepes buffer, pH=7.4, 40° C., slope of 1/T1 versus concentration
Protocol: Relaxivity measurements of the complex of Example 1 was determined.
Proton relaxation times (T1) of the sample in 100 mM Hepes buffer, pH=7.4, at 40° C. were determined from a monoexponential curve fit obtained from inversion-recovery pulse sequences (180°-τ-90°) with a Bruker PC 120/125/10 VTs NMR process analyzer. The spectrometer was calibrated for each sample to assure accurate duration of 90° and 180° radio frequency pulses and appropriate magnetic field strength to match the 20 MHz system operating frequency. The relaxivity (R1) was obtained from the slope of a plot of 1/T1 versus the concentration of paramagnetic compound.

With “[Manganese (II) dichloro 2,3-(R,R)-Cyclohexano-6-(S)-{3-(lithocholylamino)-propyl}-1,4,7,10,13-penta-azacclopentadecane] [Example 1]” the “relaxivity R1” value was 6.09.
